Among the data in US9200008B2 (ASKA PHARMACEUTICAL CO., LTD., priority 2010, dated 2015) are minimal effective concentration values, retold here.

For this test, the system named is Human prostate cancer cell lines (PC-3 cells). As to the kind of experiment: Measurement of cell death-inducing activity (Test Example 1). The settings on record: PC-3, 48 h, 48 hours after addition, tested at 10, 1, 0.1, 0.025 and 0.00625 μmol/L, qualitative evaluation of 10 fields, read-out: Concentration showing the cell death-inducing activity (cell death-inducing rate not less than 40%). In kind it is cell-based. The procedure, abridged:
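PC-3 cells seeded at 1×10^5 cells/well and grown 48 h at 37 °C, 5% CO2, then exposed to compound at 10, 1, 0.1, 0.025 and 0.00625 μmol/L (DMSO control) for a further 48 h. Activity was called where cell death-inducing rate was not less than 40%.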
Turning to `COc1ccccc1-c1cc(COC(=O)Nc2ccc3c(c2)nc2n3CCOC2)n(C)n1` [Example 13-95], the minimal effective concentration worked out at 0.025 µM. Regarding `CCn1nc(-c2ccccc2OC)cc1COC(=O)Nc1ccc2c(c1)nc1n2CCOC1` [Example 13-96], the minimal effective concentration was found to be 0.1 µM. With `COc1cc(F)ccc1-c1cc(COC(=O)Nc2ccc3c(c2)nc2n3CCOC2)n(C)n1` [Example 13-97] the figure was 0.00625 µM.

On to `CCn1nc(-c2ccc(F)cc2OC)cc1COC(=O)Nc1ccc2c(c1)nc1n2CCOC1` [Example 13-98], for which the minimal effective concentration was found to be 0.025 µM. With `COc1cc(Cl)ccc1-c1cc(COC(=O)Nc2ccc3c(c2)nc2n3CCOC2)n(C)n1` [Example 13-99] the figure was 0.00625 µM. With `CCn1nc(-c2ccc(Cl)cc2OC)cc1COC(=O)Nc1ccc2c(c1)nc1n2CCOC1` [Example 13-100] the figure was 0.00625 µM. With `CCn1nc(-c2ccc(C)cc2OC)cc1COC(=O)Nc1ccc2c(c1)nc1n2CCOC1` [Example 13-102] the figure was 0.025 µM.

Regarding `Cc1ccc(-c2cc(COC(=O)Nc3ccc4c(c3)nc3n4CCOC3)n(C)n2)c(C)c1` [Example 13-103], the minimal effective concentration was 0.00625 µM. With `CCn1nc(-c2ccc(C)cc2C)cc1COC(=O)Nc1ccc2c(c1)nc1n2CCOC1` [Example 13-104], the minimal effective concentration was found to be 0.025 µM.

As to `COc1ccccc1-c1cc(COC(=O)Nc2ccc3c(c2)nc2n3CCC2)n(C)n1` [Example 13-105], the minimal effective concentration stood at 0.025 µM. For the molecule `COc1cc(F)ccc1-c1cc(COC(=O)Nc2ccc3c(c2)nc2n3CCC2)n(C)n1` [Example 13-106], the minimal effective concentration worked out at 0.00625 µM.

With `CCn1nc(-c2ccc(F)cc2OC)cc1COC(=O)Nc1ccc2c(c1)nc1n2CCC1` [Example 13-107], the minimal effective concentration amounted to 0.025 µM. On to `COc1cc(Cl)ccc1-c1cc(COC(=O)Nc2ccc3c(c2)nc2n3CCC2)n(C)n1` [Example 13-108], for which the minimal effective concentration was determined as 0.00625 µM. Consider `CCn1nc(-c2ccc(Cl)cc2OC)cc1COC(=O)Nc1ccc2c(c1)nc1n2CCC1` [Example 13-109], for which the minimal effective concentration amounted to 0.00625 µM.

With `Cc1ccc(-c2cc(COC(=O)Nc3ccc4c(c3)nc3n4CCC3)n(C)n2)c(C)c1` [Example 13-110], the minimal effective concentration is 0.00625 µM. With `CCn1nc(-c2ccc(C)cc2C)cc1COC(=O)Nc1ccc2c(c1)nc1n2CCC1` [Example 13-111], the minimal effective concentration was 0.00625 µM. For the molecule `COc1cc(C)ccc1-c1cc(COC(=O)Nc2ccc3c(c2)nc2n3CCC2)n(C)n1` [Example 13-112], the minimal effective concentration was 0.00625 µM. With `CCn1nc(-c2ccc(C)cc2OC)cc1COC(=O)Nc1ccc2c(c1)nc1n2CCC1` [Example 13-113] the figure was 0.00625 µM; with `COc1ccccc1-c1cc(COC(=O)Nc2ccc3c(c2)nc2n3CCCC2)n(C)n1` [Example 13-114], 0.1 µM. Consider `CCn1nc(-c2ccccc2OC)cc1COC(=O)Nc1ccc2c(c1)nc1n2CCCC1` [Example 13-115], for which the minimal effective concentration was found to be 0.1 µM. Regarding `COc1cc(F)ccc1-c1cc(COC(=O)Nc2ccc3c(c2)nc2n3CCCC2)n(C)n1` [Example 13-116], the minimal effective concentration was determined as 0.025 µM. On to `CCn1nc(-c2ccc(F)cc2OC)cc1COC(=O)Nc1ccc2c(c1)nc1n2CCCC1` [Example 13-117], for which the minimal effective concentration stood at 0.1 µM. With `COc1cc(Cl)ccc1-c1cc(COC(=O)Nc2ccc3c(c2)nc2n3CCCC2)n(C)n1` [Example 13-118] the figure was 0.00625 µM; with `CCn1nc(-c2ccc(Cl)cc2OC)cc1COC(=O)Nc1ccc2c(c1)nc1n2CCCC1` [Example 13-119], 0.025 µM.

As to `COc1cc(C)ccc1-c1cc(COC(=O)Nc2ccc3c(c2)nc2n3CCCC2)n(C)n1` [Example 13-120], the minimal effective concentration was 0.025 µM. With `CCn1nc(-c2ccc(C)cc2OC)cc1COC(=O)Nc1ccc2c(c1)nc1n2CCCC1` [Example 13-121] the figure was 0.025 µM; with `Cc1ccc(-c2cc(COC(=O)Nc3ccc4c(c3)nc3n4CCCC3)n(C)n2)c(C)c1` [Example 13-122], 0.025 µM. With `CCn1nc(-c2ccc(C)cc2C)cc1COC(=O)Nc1ccc2c(c1)nc1n2CCCC1` [Example 13-123], the minimal effective concentration worked out at 0.025 µM. For the molecule `CCn1nc(-c2ccccc2OC)cc1COC(=O)Nc1ccc2c(cnn2C)c1` [Example 13-124], the minimal effective concentration stood at 10 µM. With `COc1cc(F)ccc1-c1cc(COC(=O)Nc2ccc3c(cnn3C)c2)n(C)n1` [Example 13-125] the figure was 1 µM; with `CCn1nc(-c2ccc(F)cc2OC)cc1COC(=O)Nc1ccc2c(cnn2C)c1` [Example 13-126], 10 µM. With `COc1cc(Cl)ccc1-c1cc(COC(=O)Nc2ccc3c(cnn3C)c2)n(C)n1` [Example 13-127], the minimal effective concentration is 0.1 µM. Take `CCn1nc(-c2ccc(Cl)cc2OC)cc1COC(=O)Nc1ccc2c(cnn2C)c1` [Example 13-128]: the minimal effective concentration was 1 µM. Take `CCn1ncc2cc(NC(=O)OCc3cc(-c4ccc(Cl)cc4OC)nn3C)ccc21` [Example 13-129]: the minimal effective concentration was found to be 0.025 µM. With `CCn1nc(-c2ccc(C)cc2OC)cc1COC(=O)Nc1ccc2c(cnn2C)c1` [Example 13-130] the figure was 1 µM. With `Cc1ccc(-c2cc(COC(=O)Nc3ccc4c(cnn4C)c3)n(C)n2)c(C)c1` [Example 13-131] the figure was 1 µM; with `CCn1nc(-c2ccc(C)cc2C)cc1COC(=O)Nc1ccc2c(cnn2C)c1` [Example 13-132], 1 µM.

For the molecule `CCn1cc2cc(NC(=O)OCc3cc(-c4ccc(Cl)cc4OC)nn3C)ccc2n1` [Example 13-133], the minimal effective concentration came out at 0.00625 µM. With `COc1cc(F)ccc1-c1cc(COC(=O)Nc2ccc3c(c2)ncn3C)nn1C` [Example 13-135] the figure was 0.1 µM; with `COc1cc(Cl)ccc1-c1cc(COC(=O)Nc2ccc3c(c2)ncn3C)nn1C` [Example 13-137], 10 µM.

For `Cc1ccc(-c2cc(COC(=O)Nc3ccc4c(c3)ncn4C)nn2C)c(C)c1` [Example 13-141], the minimal effective concentration was 10 µM. In the case of `COc1cc(Cl)ccc1-c1cc(COC(=O)Nc2ccc3c(c2)nc2n3CCOC2)nn1C` [Example 13-144], the minimal effective concentration was 10 µM. With `CCc1nc(-c2ccc(F)cc2C)sc1COC(=O)Nc1ccc2c(c1)ncn2C` [Example 13-149] the figure was 0.025 µM; with `CCc1nc(-c2ccc(F)cc2C)sc1COC(=O)Nc1ccc2c(c1)nc1n2CCOC1` [Example 13-150], 0.025 µM. As to `COc1ccc(CN(C)NC(=O)c2sc(-c3ccc(Cl)cc3OC)nc2C)cc1` [Example 16-1, 2-(4-Chloro-2-methoxyphenyl)-4-methylthiazole-5-carboxylic acid N′-(4-methoxybenzyl)-N′-methyl hydrazide], the minimal effective concentration was found to be 0.1 µM. With `COc1ccc(CN(C)NC(=O)c2sc(-c3ccc(Cl)cc3)nc2C)cc1` [Example 16-2] the figure was 10 µM; with `COc1ccc(CN(C)NC(=O)c2sc(-c3ccccc3C)nc2C)cc1` [Example 16-3], 1 µM; with `COc1ccc(CN(C)NC(=O)c2sc(-c3ccccc3OC)nc2C)cc1` [Example 16-4], 1 µM. With `COc1ccc(CN(C)NC(=O)c2sc(-c3cccc(C)c3C)nc2C)cc1` [Example 16-5] the figure was 10 µM; with `COc1ccc(CN(C)NC(=O)c2sc(-c3ccc(Cl)cc3C)nc2C)cc1` [Example 16-6], 0.1 µM; with `COc1ccc(CN(C)NC(=O)c2sc(-c3ccc(F)cc3F)nc2C)cc1` [Example 16-7], 1 µM. With `COc1ccc(CN(C)NC(=O)c2sc(-c3ccc(F)cc3OC)nc2C)cc1` [Example 16-8] the figure was 0.1 µM; with `COc1ccc(CN(C)NC(=O)c2sc(-c3ccc(OC)cc3Cl)nc2C)cc1` [Example 16-9], 10 µM. On to `COc1ccc(CN(C)NC(=O)c2sc(-c3ccc(Cl)cc3Cl)nc2C)cc1` [Example 16-10], for which the minimal effective concentration worked out at 1 µM. With `COc1ccc(CN(C)NC(=O)c2sc(-c3ccc(C)cc3C)nc2C)cc1` [Example 16-11] the figure was 0.1 µM.

As to `CCN(Cc1ccc(OC)cc1)NC(=O)c1sc(-c2ccccc2OC)nc1C` [Example 16-12], the minimal effective concentration was found to be 1 µM. With `CCN(Cc1ccc(OC)cc1)NC(=O)c1sc(-c2ccc(Cl)cc2OC)nc1C` [Example 16-13] the figure was 0.1 µM. With `CCN(Cc1ccc(OC)cc1)NC(=O)c1sc(-c2cccc(C)c2C)nc1C` [Example 16-14], the minimal effective concentration was 10 µM. In the case of `CCN(Cc1ccc(OC)cc1)NC(=O)c1sc(-c2ccc(Cl)cc2C)nc1C` [Example 16-15], the minimal effective concentration was determined as 1 µM. With `COc1ccc(CN(C)NC(=O)c2sc(-c3ccc(Cl)cc3OC)nc2C)cc1OC` [Example 16-16] the figure was 1 µM; with `COc1ccc(CN(C)NC(=O)c2sc(-c3ccc(Cl)cc3C)nc2C)cc1OC` [Example 16-17], 1 µM.

With `COc1cc(Cl)ccc1-c1nc(C)c(C(=O)NN(C)Cc2ccc3c(c2)CCO3)s1` [Example 16-18], the minimal effective concentration was 1 µM. Turning to `CCOc1ccc(CN(C)NC(=O)c2sc(-c3ccc(Cl)cc3OC)nc2C)cc1` [Example 16-19], the minimal effective concentration is 0.1 µM. With `COc1ccc(CN(C)NC(=O)c2sc(-c3ccc(Cl)cc3OC)nc2C)cc1F` [Example 16-20] the figure was 0.1 µM; with `COc1ccc(CN(C)NC(=O)c2sc(-c3ccc(F)cc3F)nc2C)cc1F` [Example 16-21], 1 µM.
